PMC3817308, “Metal-sensitive and thermostable trypsin from the crevalle jack (Caranx hippos) pyloric caeca: purification and characterization” (Chemistry Central Journal, 2013)

Test system: T1, trypsin from crevalle jack (Caranx hippos) pyloric caeca
T1 construct: gene trypsin-like enzyme; native, purified from pyloric caeca (heat, ammonium sulfate, Sephadex G-75); mature N-terminus IVGGFECTPHVFAYQ
Assay: p-nitroaniline release at […] nm, Michaelis-Menten fit
Format: biochemical
Settings: 0.1 M Tris-HCl pH 8.0; 0.02-2.4 mM BApNA

- Km: 689 ± 50 µM
SMILES: NC(N)=NCCCC(NC(=O)c1ccccc1)C(=O)Nc1ccc([N+](=O)[O-])cc1 (racemic) [BApNA, N-α-benzoyl-DL-arginine-p-nitroanilide]
